Test results published in patent publication US20230141603A1, “BENZODIAZEPINE DERIVATIVES AS GABA A GAMMA1 PAM” (Hoffmann-La Roche Inc., priority 2021, published 2023).

Target: T1, h-GABAA α5β2γ1 (Homo sapiens, UniProt P31644+Q8N1C3)
T1 construct: expressed in transfected cells; host or cells: HEK293F cells (ThermoFisher R79007), membranes
T1 sequence (P31644 32-462): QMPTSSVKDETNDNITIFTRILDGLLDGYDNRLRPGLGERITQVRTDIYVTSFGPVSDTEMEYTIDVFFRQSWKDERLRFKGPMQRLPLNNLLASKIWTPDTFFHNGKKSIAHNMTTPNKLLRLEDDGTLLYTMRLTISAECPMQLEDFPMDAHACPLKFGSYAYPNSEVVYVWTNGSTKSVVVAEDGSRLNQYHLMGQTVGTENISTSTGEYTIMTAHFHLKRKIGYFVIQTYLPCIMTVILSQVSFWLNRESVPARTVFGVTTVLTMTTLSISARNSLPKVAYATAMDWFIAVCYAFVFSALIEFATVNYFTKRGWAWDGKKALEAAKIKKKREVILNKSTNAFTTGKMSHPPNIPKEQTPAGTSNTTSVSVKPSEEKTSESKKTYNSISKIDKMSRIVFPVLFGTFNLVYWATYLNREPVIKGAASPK
T1 sequence (P47870 25-512 partner limits assumed): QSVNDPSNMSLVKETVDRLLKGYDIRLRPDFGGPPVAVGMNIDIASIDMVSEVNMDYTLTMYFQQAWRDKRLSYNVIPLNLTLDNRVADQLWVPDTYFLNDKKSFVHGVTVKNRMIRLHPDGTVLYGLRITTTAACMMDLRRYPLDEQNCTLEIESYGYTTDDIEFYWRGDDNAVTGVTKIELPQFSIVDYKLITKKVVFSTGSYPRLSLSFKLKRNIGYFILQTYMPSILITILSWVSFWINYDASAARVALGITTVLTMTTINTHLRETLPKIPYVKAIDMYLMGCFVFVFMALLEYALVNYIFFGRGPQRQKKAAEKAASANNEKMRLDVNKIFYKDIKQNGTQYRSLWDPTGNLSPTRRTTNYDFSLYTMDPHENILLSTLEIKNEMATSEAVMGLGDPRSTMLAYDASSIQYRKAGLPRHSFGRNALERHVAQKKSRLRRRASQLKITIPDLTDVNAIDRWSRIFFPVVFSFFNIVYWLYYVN
T1 sequence (Q8N1C3 36-465): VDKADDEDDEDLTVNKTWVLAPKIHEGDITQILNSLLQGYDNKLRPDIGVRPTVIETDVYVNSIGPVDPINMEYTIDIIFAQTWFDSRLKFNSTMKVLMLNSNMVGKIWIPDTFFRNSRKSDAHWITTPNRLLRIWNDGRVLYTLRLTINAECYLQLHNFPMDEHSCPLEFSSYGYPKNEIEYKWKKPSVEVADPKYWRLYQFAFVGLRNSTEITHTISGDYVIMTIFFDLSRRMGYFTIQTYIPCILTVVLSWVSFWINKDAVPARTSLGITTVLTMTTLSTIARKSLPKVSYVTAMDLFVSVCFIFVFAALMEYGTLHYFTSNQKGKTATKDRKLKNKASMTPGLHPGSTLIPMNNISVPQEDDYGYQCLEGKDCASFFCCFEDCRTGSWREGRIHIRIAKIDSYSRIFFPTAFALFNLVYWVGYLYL
Assay: Radioligand binding assay, [3H]RO7239181 competition, HEK293F membranes
Procedure: The affinity of compounds at GABAA γ1 subunit-containing receptors was measured by competition for [^3H]RO7239181 (67.3 Ci/mmol; Roche) binding to membranes from HEK293F cells (ThermoFisher R79007) expressing human (transiently transfected) receptors of composition […], α2β2γ1, α1β2γ1. For better protein expression of the α2 subunit-containing receptors, the 28 amino acid long signal peptide (Met1 to Ala28) of the human GABAA α2 subunit was substituted by the 31 amino acid long signal peptide (Met1 to Ser31) of human GABAA α5 subunit.
Harvested pellets from HEK293F cells expressing the different GABAA receptor subtypes were resuspended in Mannitol Buffer pH 7.2-7.4 (Mannitol 0.29M, Triethylamine 10 mM, Acetic acid 10 mM, EDTA 1 mM plus protease inhibitors (20 tablets Complete, Roche Diagnostics Cat. No. 05 056 489 001 per liter)), washed two times and then resuspended at 1:10 to 1:15 dilution in the same buffer. Cell disruption was performed by stirring the suspension in a Parr vessel #4637 at 435 psi for 15 minutes, and then the suspensions were centrifuged at 1000×g for 15 minutes at 4° C. (Beckman Avanti J-HC; rotor JS-4.2). The supernatant (S1) was transferred in a 21 Schott flask and the pellet (P1) was resuspended with Mannitol Buffer up to 175 ml. The resuspended pellet was transferred into a 250 ml Corning centrifugal beaker and centrifuged at 1500×g for 10 minutes at 4° C. (Beckman Avanti J-HC; rotor JS-4.2). The supernatant (S1) was then transferred in the 21 Schott flask and the pellet was discarded. The supernatants (S1) were centrifuged in 500 ml Beckman polypropylene centrifugal beaker at 15′000×g for 30 minutes at 4° C. (Beckman Avanti J-20 XP; rotor JLA-10.500). The pellet (P2) was resuspended with Mannitol Buffer 1:1 and frozen at −80° C. The supernatant (S2) was centrifuged in 100 ml Beckman polypropylene centrifugal tubes at 48000×g for 50 minutes at 4° C. (Beckman Avanti J-20 XP; rotor JA-18). The supernatant (S3) was discarded and the pellet (P3) was resuspended with 1:1 Mannitol Buffer. The P2 and P3 protein concentration was determined with the BIORAD Standard assay method with bovine serum albumin as standard and measured on the NANO-Drop 1000. The membrane suspension was aliquots (500 μl per tube) and stored at −80° C. until required. Membrane homogenates were resuspended and polytronised (Polytron PT1200E Kinematica AG) in Potassium Phosphate 10 mM, KCl 100 mM binding buffer at pH 7.4 to a final assay concentration determined with a previous experiment.
Radioligand binding assays were carried out in a volume of 200 μL (96-well plates) which contained 100 μL of cell membranes, [^3H]RO7239181 at a concentration of 1.5 nM (α5β2γ1) or 20-30 nM (α1β2γ1, α2β2γ1) and the test compound in the range of [0.3-10000]×10^−9 M. Nonspecific binding was defined by 10×10^−6 (α5β2γ1) and 30×10^−6 M RO7235136 and typically represented less than 5% (α5β2γ1) and less than 20% (α1β2γ1, α2β2γ1) of the total binding. Assays were incubated to equilibrium for 1 hour at 4° C. and then, membranes were filtered onto unifilter (96-well white microplate with bonded GF/C filters preincubated 20-50 minutes in 0.3% Polyethylenimine) with a Filtermate 196 harvester (Packard BioScience) and washed 4 times with cold Potassium Phosphate 10 mM pH 7.4, KCl 100 mM binding buffer. After drying, filter-retained radioactivity was detected by liquid scintillation counting. Ki values were calculated using Excel-Fit (Microsoft) and are the means of two determinations.

Question: How did the Ki turn out when `Fc1cccc(F)c1C1=NCc2nncn2-c2ccc(Br)c(Cl)c21` [Example 7, 8-bromo-7-chloro-6-(2,6-difluorophenyl)-4H-[1,2,4]triazolo[4,3-a][1,4]benzodiazepine] was run?
Answer: 0.4 nM

Question: Which Ki does the source give for `COc1ccc2c(c1Cl)C(c1c(F)cccc1F)=NCc1nnc(-c3cccnn3)n1-2` [Example 57, 7-chloro-6-(2,6-difluorophenyl)-8-methoxy-1-pyridazin-3-yl-4H-[1,2,4]triazolo[4,3-a][1,4]benzodiazepine] here?
Answer: 4.6 nM

Question: Which Ki does the source give for `Cc1nnc2n1-c1ccc(Cl)c(Cl)c1C(c1ncccc1F)=NC2` [Example 71, 7,8-dichloro-6-(3-fluoro-2-pyridyl)-1-methyl-4H-[1,2,4]triazolo[4,3-a][1,4]benzodiazepine] here?
Answer: 5.7 nM

Question: With `Fc1cccnc1C1=NCc2nnc(-c3cccnn3)n2-c2ccc(C(F)(F)F)c(Cl)c21` [Example 72, 7-chloro-6-(3-fluoro-2-pyridyl)-1-pyridazin-3-yl-8-(trifluoromethyl)-4H-[1,2,4]triazolo[4,3-a][1,4]benzodiazepine] as the compound, how does the Ki read?
Answer: 5.4 nM

Question: `COc1ccc2c(c1Cl)C(c1c(F)cccc1F)=NCc1nnc(-c3cccnc3)n1-2` [Example 62, 7-chloro-6-(2,6-difluorophenyl)-8-methoxy-1-(3-pyridyl)-4H-[1,2,4]triazolo[4,3-a][1,4]benzodiazepine] was tested. Which Ki did it give?
Answer: 4 nM

Question: With `Cc1nnc2n1-c1ccc(Cl)c(Cl)c1C(c1ccccc1F)=NC2` [Example 4, 7,8-dichloro-6-(2-fluorophenyl)-1-methyl-4H-[1,2,4]triazolo[4,3-a][1,4]benzodiazepine] as the compound, how does the Ki read?
Answer: 5.4 nM

Question: `Cc1nnc2n1-c1ccc(Br)c(Cl)c1C(c1c(F)cccc1F)=NC2` [Example 1, 8-bromo-7-chloro-6-(2,6-difluorophenyl)-1-methyl-4H-[1,2,4]triazolo[4,3-a][1,4]benzodiazepine] was tested. Which Ki did it give?
Answer: 1.1 nM

Question: With `CC(F)(F)c1ccc2c(c1Cl)C(c1c(F)cccc1F)=NCc1nncn1-2` [Example 21, 7-chloro-8-(1,1-difluoroethyl)-6-(2,6-difluorophenyl)-4H-[1,2,4]triazolo[4,3-a][1,4]benzodiazepine] as the compound, how does the Ki read?
Answer: 4.6 nM

Question: How did the Ki turn out when `O=c1[nH]nc2n1-c1ccc(Br)c(Cl)c1C(c1c(F)cccc1F)=NC2` [Example 13, 8-bromo-7-chloro-6-(2,6-difluorophenyl)-2,4-dihydro-[1,2,4]triazolo[4,3-a][1,4]benzodiazepin-1-one] was run?
Answer: 1.1 nM

Question: Which Ki does the source give for `Fc1cccnc1C1=NCc2nnc(-c3ccncn3)n2-c2ccc(Cl)c(Cl)c21` [Example 55, 7,8-dichloro-6-(3-fluoro-2-pyridyl)-1-pyrimidin-4-yl-4H-[1,2,4]triazolo[4,3-a][1,4]benzodiazepine] here?
Answer: 5.5 nM

Question: `Cc1ccc2c(c1Cl)C(c1c(F)cccc1F)=NCc1n[nH]c(=O)n1-2` [Example 16, 7-chloro-6-(2,6-difluorophenyl)-8-methyl-2,4-dihydro-[1,2,4]triazolo[4,3-a][1,4]benzodiazepin-1-one] was tested. Which Ki did it give?
Answer: 1.8 nM

Question: `Fc1cccnc1C1=NCc2nnc(-c3ccncn3)n2-c2ccc(C(F)(F)F)c(Cl)c21` [Example 69, 7-chloro-6-(3-fluoro-2-pyridyl)-1-pyrimidin-4-yl-8-(trifluoromethyl)-4H-[1,2,4]triazolo[4,3-a][1,4]benzodiazepine] was tested. Which Ki did it give?
Answer: 7.1 nM

Question: Which Ki does the source give for `Cc1nnc2n1-c1ccc(C3CC3)c(Cl)c1C(c1c(F)cccc1F)=NC2` [Example 6, 7-chloro-8-cyclopropyl-6-(2,6-difluorophenyl)-1-methyl-4H-[1,2,4]triazolo[4,3-a][1,4]benzodiazepine] here?
Answer: 12.7 nM

Question: With `COc1nnc2n1-c1ccc(Cl)c(Cl)c1C(c1c(F)cccc1F)=NC2` [Example 90, 7,8-dichloro-6-(2,6-difluorophenyl)-1-methoxy-4H-[1,2,4]triazolo[4,3-a][1,4]benzodiazepine] as the compound, how does the Ki read?
Answer: 1 nM

Question: For `Cn1cc(-c2nnc3n2-c2ccc(Cl)c(Cl)c2C(c2c(F)cccc2F)=NC3)cn1` [Example 28, 7,8-dichloro-6-(2,6-difluorophenyl)-1-(1-methylpyrazol-4-yl)-4H-[1,2,4]triazolo[4,3-a][1,4]benzodiazepine], which Ki is on record?
Answer: 1.4 nM

Question: For `Clc1cccnc1C1=NCc2nnc(-c3cccnn3)n2-c2ccc(Br)c(Cl)c21` [Example 47, 8-bromo-7-chloro-6-(3-chloro-2-pyridyl)-1-pyridazin-3-yl-4H-[1,2,4]triazolo[4,3-a][1,4]benzodiazepine], which Ki is on record?
Answer: 1.3 nM

Question: With `Cc1ccc2c(c1Cl)C(c1c(F)cccc1F)=NCc1nnc(C)n1-2` [Example 20, 7-chloro-6-(2,6-difluorophenyl)-1,8-dimethyl-4H-[1,2,4]triazolo[4,3-a][1,4]benzodiazepine] as the compound, how does the Ki read?
Answer: 2.9 nM

Question: `Cc1nnc2n1-c1ccc(Cl)c(Cl)c1C(c1c(F)cccc1F)=NC2` [Example 5, 7,8-dichloro-6-(2,6-difluorophenyl)-1-methyl-4H-[1,2,4]triazolo[4,3-a][1,4]benzodiazepine] was tested. Which Ki did it give?
Answer: 0.8 nM

Question: With `Cc1nnc2n1-c1ccc(C(C)(F)F)c(Cl)c1C(c1c(F)cccc1F)=NC2` [Example 22, 7-chloro-8-(1,1-difluoroethyl)-6-(2,6-difluorophenyl)-1-methyl-4H-[1,2,4]triazolo[4,3-a][1,4]benzodiazepine] as the compound, how does the Ki read?
Answer: 4.3 nM

Question: How did the Ki turn out when `Fc1cccc(F)c1C1=NCc2nncn2-c2ccc(Cl)c(Cl)c21` [Example 15, 7,8-dichloro-6-(2,6-difluorophenyl)-4H-[1,2,4]triazolo[4,3-a][1,4]benzodiazepine] was run?
Answer: 0.9 nM

Question: Which Ki does the source give for `Cc1nnc2n1-c1ccc(C(F)F)c(Cl)c1C(c1c(F)cccc1F)=NC2` [Example 25, 7-chloro-8-(difluoromethyl)-6-(2,6-difluorophenyl)-1-methyl-4H-[1,2,4]triazolo[4,3-a][1,4]benzodiazepine] here?
Answer: 4.4 nM
